This is an account of results in patent US11987588B2, “Modulators of the beta-3 adrenergic receptor useful for the treatment or prevention of heart failure and disorders related thereto” (Arena Pharmaceuticals, Inc., priority 2017, dated 2024).

This assay deals with Beta-3 Adrenergic Receptor (Homo sapiens (Human), UniProt P13945). Description: Homogeneous Time-Resolved Fluorescence (HTRF) cAMP antagonist assay, IC50 determination. It counts as cell-based. The note with it: CHO-K1 cells stably expressing recombinant receptor, isoproterenol at EC90. The protocol: HTRF cAMP assays were performed according to manufacturer's instructions (Cisbio, cAMP Dynamic 2 Assay Kit; #62AM4PEJ). CHO-K1 cells stably expressing recombinant receptor were harvested and suspended in warm PBS to make a 300,000 cells/mL stock. This cell suspension was dispensed into 384 well assay plates (PerkinElmer ProxiPlate #6008280) at 5 μL per well (1500 cells/well) along with a cAMP standard curve.
Compounds were dissolved and serially diluted (5-fold) in DMSO to generate a 10-point dose response stock. The stock was then diluted 100-fold in assay buffer (PBS containing 1 mM IBMX) before a volume of 2.5 μL was added to the cells (the final, top concentration of compound in the dose-response is typically 10 or 100 μM). After a brief incubation, 2.5 μL of isoproterenol stock, prepared at a concentration 4 times its EC90 at the receptor of interest, was added to the wells. The EC90 for isoproterenol, a beta-adrenergic agonist, was determined in separate experiments using standard methods to measure agonist potencies.
Following a 1-hour incubation at room temperature, 5 μL of cAMP-D2 Reagent diluted in Lysis Buffer was added to each well followed by 5 μL of Cryptate Reagent. Plates were further incubated at room temperature for 1 hour prior to reading. Time resolved fluorescence measurements were collected on a suitable, HTRF-capable plate reader.
Counts from the plate reader were fit to the cAMP standard curve on the assay plate in order to determine cAMP concentrations in each well, and these values were used to construct dose-response curves to obtain IC50 values.
(TR-FRET usually uses a lanthanide donor and a delayed reading to cut background.)

Sequence of Beta-3 Adrenergic Receptor (P13945 whole entry, species assumed): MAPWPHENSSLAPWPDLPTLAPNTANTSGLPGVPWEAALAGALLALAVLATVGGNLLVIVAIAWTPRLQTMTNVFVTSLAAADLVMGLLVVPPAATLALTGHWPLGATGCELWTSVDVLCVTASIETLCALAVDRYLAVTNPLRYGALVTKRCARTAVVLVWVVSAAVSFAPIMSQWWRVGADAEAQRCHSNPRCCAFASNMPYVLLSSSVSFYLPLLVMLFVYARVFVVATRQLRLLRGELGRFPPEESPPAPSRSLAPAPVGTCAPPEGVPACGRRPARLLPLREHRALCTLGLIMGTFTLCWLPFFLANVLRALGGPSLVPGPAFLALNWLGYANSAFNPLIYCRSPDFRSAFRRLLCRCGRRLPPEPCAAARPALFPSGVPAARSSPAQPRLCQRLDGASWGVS

In the case of `CNS(=O)(=O)c1cccc(OC[C@@H](O)CN[C@H]2COC3(CCN(S(=O)(=O)c4cnc5cccnc5c4)CC3)C2)c1` [Compound 485, 3-((S)-3-((R)-8-(1,5-naphthyridin-3-ylsulfonyl)-1-oxa-8-azaspiro[4.5]decan-3-ylamino)-2-hydroxypropoxy)-N-methylbenzenesulfonamide], the IC50 stood at 35.8 nM.
With `CNS(=O)(=O)c1cccc(OC[C@@H](O)CN[C@H]2COC3(CCN(S(=O)(=O)c4cnc5c(c4)N(CCO)CCO5)CC3)C2)c1` [Compound 465, 3-((S)-2-hydroxy-3-((R)-8-(1-(2-hydroxyethyl)-2,3-dihydro-1H-pyrido[2,3-b][1,4]oxazin-7-ylsulfonyl)-1-oxa-8-azaspiro[4.5]decan-3-ylamino)propoxy)-N-methylbenzenesulfonamide] the figure was 26.3 nM; with `CNS(=O)(=O)c1cccc(OC[C@@H](O)CNC2COC3(CCN(S(=O)(=O)c4cc(Cl)cc(Cl)c4)CC3)C2)c1` (stereo partly drawn) [Compound 138, 3-((2S)-3-(8-(3,5-dichlorophenylsulfonyl)-1-oxa-8-azaspiro[4.5]decan-3-ylamino)-2-hydroxypropoxy)-N-methylbenzenesulfonamide], 14.2 nM.
With `CNS(=O)(=O)c1cccc(OC[C@@H](O)CNC2COC3(CCN(S(=O)(=O)c4cccc(-c5cncc(C#N)c5)c4)CC3)C2)c1` (stereo partly drawn) [Compound 370, 3-((2S)-3-(8-(3-(5-cyanopyridin-3-yl)phenylsulfonyl)-1-oxa-8-azaspiro[4.5]decan-3-ylamino)-2-hydroxypropoxy)-N-methylbenzenesulfonamide] the figure was 47.8 nM; with `CCOc1ccc(S(=O)(=O)N2CCC3(CC2)CC(NC[C@H](O)COc2cccc(S(=O)(=O)NC)c2)CO3)cc1` (stereo partly drawn) [Compound 136, 3-((2S)-3-(8-(4-ethoxyphenylsulfonyl)-1-oxa-8-azaspiro[4.5]decan-3-ylamino)-2-hydroxypropoxy)-N-methylbenzenesulfonamide], 23.5 nM.
In the case of `CCn1cc(S(=O)(=O)N2CCC3(CC2)C[C@@H](NC[C@H](O)COc2cccc(S(=O)(=O)NC)c2)CO3)c(=O)c2cccc(C)c21` [Compound 545, 3-((S)-3-((R)-8-(1-ethyl-8-methyl-4-oxo-1,4-dihydroquinolin-3-ylsulfonyl)-1-oxa-8-azaspiro[4.5]decan-3-ylamino)-2-hydroxypropoxy)-N-methylbenzenesulfonamide], the IC50 came to 121 nM.
With `CNS(=O)(=O)c1cccc(OC[C@@H](O)CNC2COC3(CCN(S(=O)(=O)c4cnc(O)nc4)CC3)C2)c1` (stereo partly drawn) [Compound 425, 3-((2S)-2-hydroxy-3-(8-(2-hydroxypyrimidin-5-ylsulfonyl)-1-oxa-8-azaspiro[4.5]decan-3-ylamino)propoxy)-N-methylbenzenesulfonamide] the figure was 216 nM.
With `CNS(=O)(=O)c1cccc(OC[C@@H](O)CNC2COC3(CCN(S(=O)(=O)c4cccc(-c5cc[nH]c5)c4)CC3)C2)c1` (stereo partly drawn) [Compound 63, 3-((2S)-3-(8-(3-(1H-pyrrol-3-yl)phenylsulfonyl)-1-oxa-8-azaspiro[4.5]decan-3-ylamino)-2-hydroxypropoxy)-N-methylbenzenesulfonamide] the figure was 19.3 nM; with `CNS(=O)(=O)c1cccc(OC[C@@H](O)CN[C@@H]2COC3(CCN(S(=O)(=O)c4cccc(-c5ccc(N)nc5)c4)CC3)C2)c1` [Compound 286, 3-((S)-3-((S)-8-(3-(6-aminopyridin-3-yl)phenylsulfonyl)-1-oxa-8-azaspiro[4.5]decan-3-ylamino)-2-hydroxypropoxy)-N-methylbenzenesulfonamide], 20.5 nM; with `CCn1cc(S(=O)(=O)N2CCC3(CC2)C[C@@H](NC[C@H](O)COc2cccc(S(=O)(=O)NC)c2)CO3)c(=O)c2ccc(C)cc21` [Compound 531, 3-((S)-3-((R)-8-(1-ethyl-7-methyl-4-oxo-1,4-dihydroquinolin-3-ylsulfonyl)-1-oxa-8-azaspiro[4.5]decan-3-ylamino)-2-hydroxypropoxy)-N-methylbenzenesulfonamide], 50.5 nM.
With `CNS(=O)(=O)c1cccc(OC[C@@H](O)CNC2COC3(CCN(S(=O)(=O)c4cccc(-c5cnn(CC6CC6)c5)c4)CC3)C2)c1` (stereo partly drawn) [Compound 82, 3-((2S)-3-(8-(3-(1-(cyclopropylmethyl)-1H-pyrazol-4-yl)phenylsulfonyl)-1-oxa-8-azaspiro[4.5]decan-3-ylamino)-2-hydroxypropoxy)-N-methylbenzenesulfonamide] the figure was 15.9 nM; with `CN(C)S(=O)(=O)c1cccc(OC[C@@H](O)CNC2COC3(CCN(S(=O)(=O)c4ccc(Cl)c5nonc45)CC3)C2)c1` (stereo partly drawn) [Compound 257, 3-((2S)-3-(8-(7-chlorobenzo[c][1,2,5]oxadiazol-4-ylsulfonyl)-1-oxa-8-azaspiro[4.5]decan-3-ylamino)-2-hydroxypropoxy)-N,N-dimethylbenzenesulfonamide], 37 nM.
Turning to `CNS(=O)(=O)c1cccc(OC[C@@H](O)CNC2COC3(CCN(S(=O)(=O)c4ccc5c(c4)OCCO5)CC3)C2)c1` (stereo partly drawn) [Compound 332, 3-((2S)-3-(8-(2,3-dihydrobenzo[b][1,4]dioxin-6-ylsulfonyl)-1-oxa-8-azaspiro[4.5]decan-3-ylamino)-2-hydroxypropoxy)-N-methylbenzenesulfonamide], the concentration for half-maximal inhibition (IC50) was 17.9 nM.
Next, `CNS(=O)(=O)c1cccc(OC[C@@H](O)CN[C@H]2COC3(CCN(S(=O)(=O)c4cnc5c(c4)N(C)CC(C)(C)O5)CC3)C2)c1` [Compound 473, 3-((S)-2-hydroxy-3-((R)-8-(1,3,3-trimethyl-2,3-dihydro-1H-pyrido[2,3-b][1,4]oxazin-7-ylsulfonyl)-1-oxa-8-azaspiro[4.5]decan-3-ylamino)propoxy)-N-methylbenzenesulfonamide]: 59.2 nM; `CN(C)S(=O)(=O)c1cccc(OC[C@@H](O)CNC2COC3(CCN(S(=O)(=O)c4cccc(Cl)c4)CC3)C2)c1` (stereo partly drawn) [Compound 246, 3-((2S)-3-(8-(3-chlorophenylsulfonyl)-1-oxa-8-azaspiro[4.5]decan-3-ylamino)-2-hydroxypropoxy)-N,N-dimethylbenzenesulfonamide]: 38.6 nM.
In the case of `Cc1c(S(=O)(=O)N2CCC3(CC2)CC(NC[C@H](O)COc2cccc(S(=O)(=O)NCCCN(C)C)c2)CO3)cnn1-c1ccccc1` (stereo partly drawn) [Compound 313, N-(3-(dimethylamino)propyl)-3-((2S)-2-hydroxy-3-(8-(5-methyl-1-phenyl-1H-pyrazol-4-ylsulfonyl)-1-oxa-8-azaspiro[4.5]decan-3-ylamino)propoxy)benzenesulfonamide], the IC50 worked out at 4010 nM.
With `CNS(=O)(=O)c1cccc(OC[C@@H](O)CNC2COC3(CCN(S(=O)(=O)c4ccc(-c5ccccn5)cc4)CC3)C2)c1` (stereo partly drawn) [Compound 402, 3-((2S)-2-hydroxy-3-(8-(4-(pyridin-2-yl)phenylsulfonyl)-1-oxa-8-azaspiro[4.5]decan-3-ylamino)propoxy)-N-methylbenzenesulfonamide] the figure was 20.4 nM.
Next, `CNS(=O)(=O)c1cccc(OC[C@@H](O)CNC2COC3(CCN(S(=O)(=O)c4ccc(C(C)=O)cc4)CC3)C2)c1` (stereo partly drawn) [Compound 25, 3-((2S)-3-(8-(4-acetylphenylsulfonyl)-1-oxa-8-azaspiro[4.5]decan-3-ylamino)-2-hydroxypropoxy)-N-methylbenzenesulfonamide]: 26 nM; `CNS(=O)(=O)c1cccc(OC[C@@H](O)CNC2COC3(CCN(S(=O)(=O)c4cccc(Cl)c4Cl)CC3)C2)c1` (stereo partly drawn) [Compound 142, 3-((2S)-3-(8-(2,3-dichlorophenylsulfonyl)-1-oxa-8-azaspiro[4.5]decan-3-ylamino)-2-hydroxypropoxy)-N-methylbenzenesulfonamide]: 16.8 nM.
Next, `CNS(=O)(=O)c1cccc(OC[C@@H](O)CNC2COC3(CCN(c4cc(Cl)ccn4)CC3)C2)c1` (stereo partly drawn) [Compound 433, 3-((2S)-3-(8-(4-chloropyridin-2-yl)-1-oxa-8-azaspiro[4.5]decan-3-ylamino)-2-hydroxypropoxy)-N-methylbenzenesulfonamide]: 352 nM.
Consider `CNS(=O)(=O)c1cccc(OC[C@@H](O)CNC2COC3(CCN(S(=O)(=O)c4cccc(-c5cnn(Cc6ccccc6)c5)c4)CC3)C2)c1` (stereo partly drawn) [Compound 77, 3-((2S)-3-(8-(3-(1-benzyl-1H-pyrazol-4-yl)phenylsulfonyl)-1-oxa-8-azaspiro[4.5]decan-3-ylamino)-2-hydroxypropoxy)-N-methylbenzenesulfonamide], for which the IC50 amounted to 17.5 nM.
On to `CNS(=O)(=O)c1cccc(OC[C@@H](O)CNC2COC3(CCN(S(=O)(=O)c4c(Cl)nc5sccn45)CC3)C2)c1` (stereo partly drawn) [Compound 129, 3-((2S)-3-(8-(6-chloroimidazo[2,1-b]thiazol-5-ylsulfonyl)-1-oxa-8-azaspiro[4.5]decan-3-ylamino)-2-hydroxypropoxy)-N-methylbenzenesulfonamide], for which the IC50 amounted to 24.9 nM.
On to `CNS(=O)(=O)c1cccc(OC[C@@H](O)CN[C@@H]2COC3(CCN(S(=O)(=O)c4ccc(OC)c(-c5ccc(C6(N)CC6)cc5)c4)CC3)C2)c1` [Compound 463, 3-((S)-3-((S)-8-(4′-(1-aminocyclopropyl)-6-methoxybiphenyl-3-ylsulfonyl)-1-oxa-8-azaspiro[4.5]decan-3-ylamino)-2-hydroxypropoxy)-N-methylbenzenesulfonamide], for which the half-maximal inhibitory concentration (IC50) was determined as 24.3 nM.

The IC50 is the midpoint of a concentration-inhibition curve.
